Reference: PubChem BioAssay AID1963442 (Molecular Pharmacology Branch, DTP, NCI, 2024)
Several values for one entry are separate records, joined by “and”; a condition that tells them apart may be missing. Equal entries are not always repeated.

Tested on: MPNST complex spheroid with HUVEC/MSC, growth, % test/control
Experiment: Anticancer human tumor MPNST cell line growth inhibition [Asc];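 further: compounds left on spheroids for seven days before reading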
Settings: for viability, T/C: stronger effect = lower value
In short: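 Complex solid-tumor spheroids incorporating human endothelial and mesenchymal stem cells received single agents or combinations over half-log dilution ranges anchored to clinical Cmax.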

`O=C(c1cc(Cc2n[nH]c(=O)c3ccccc23)ccc1F)N1CCN(C(=O)C2CC2)CC1` + CCN1C(C(=O)NC23CCC(C(=O)O)(CC2)CC3)C(c2cccc(Cl)c2F)C2(C(=O)Nc3cc(Cl)ccc32)C12CCCCC2 gave an IC50 (curve of first compound, second compound 0.03 µM) of over 10000 nM, an IC50 (curve of first compound, second compound 0.0949 µM) of over 10000 nM and an IC50 (curve of first compound, second compound 0.3 µM) of over 10000 nM. For the same compound, the IC50 (curve of first compound, second compound 0.949 µM) was over 10000 nM, the IC50 (curve of first compound, second compound 3 µM) was over 10000 nM and the viability, T/C (second compound 0.03 µM, first compound 0.0316 µM) was 122%. It also gave a viability, T/C (second compound 0.03 µM, first compound 0.1 µM) of 113%, a viability, T/C (second compound 0.03 µM, first compound 0.316 µM) of 101% and a viability, T/C (second compound 0.03 µM, first compound 1 µM) of 80.6%. It also gave a viability, T/C (second compound 0.03 µM, first compound 3.16 µM) of 65.8%, a viability, T/C (second compound 0.03 µM, first compound 10 µM) of 50.1% and a viability, T/C (second compound 0.0949 µM, first compound 0.0316 µM) of 141%. The viability, T/C (second compound 0.0949 µM, first compound 0.1 µM) was 115%, the viability, T/C (second compound 0.0949 µM, first compound 0.316 µM) was 121% and the viability, T/C (second compound 0.0949 µM, first compound 1 µM) was 106%. It also gave a viability, T/C (second compound 0.0949 µM, first compound 3.16 µM) of 97.9%, a viability, T/C (second compound 0.0949 µM, first compound 10 µM) of 61.5% and a viability, T/C (second compound 0.3 µM, first compound 0.0316 µM) of 122%. The viability, T/C (second compound 0.3 µM, first compound 0.1 µM) was 115%, the viability, T/C (second compound 0.3 µM, first compound 0.316 µM) was 117% and the viability, T/C (second compound 0.3 µM, first compound 1 µM) was 93.1%. For the same compound, the viability, T/C (second compound 0.3 µM, first compound 3.16 µM) was 100%, the viability, T/C (second compound 0.3 µM, first compound 10 µM) was 71.4% and the viability, T/C (second compound 0.949 µM, first compound 0.0316 µM) was 111%. The viability, T/C (second compound 0.949 µM, first compound 0.1 µM) was 113%, the viability, T/C (second compound 0.949 µM, first compound 0.316 µM) was 118% and the viability, T/C (second compound 0.949 µM, first compound 1 µM) was 100%. It also gave a viability, T/C (second compound 0.949 µM, first compound 3.16 µM) of 100%, a viability, T/C (second compound 0.949 µM, first compound 10 µM) of 78.2% and a viability, T/C (second compound 3 µM, first compound 0.0316 µM) of 105%. The viability, T/C (second compound 3 µM, first compound 0.1 µM) was 107%, the viability, T/C (second compound 3 µM, first compound 0.316 µM) was 116% and the viability, T/C (second compound 3 µM, first compound 1 µM) was 90.9%. It also gave a viability, T/C (second compound 3 µM, first compound 3.16 µM) of 88.8% and a viability, T/C (second compound 3 µM, first compound 10 µM) of 72.2%.
With `CCN1CCN(Cc2ccc(Nc3ncc(F)c(-c4cc(F)c5nc(C)n(C(C)C)c5c4)n3)nc2)CC1` the viability, T/C (compound 0.00316 µM) was 73% and 74.2% and 85.2%, the viability, T/C (compound 0.01 µM) was 91.6% and 72.8% and 69.6% and the viability, T/C (compound 0.0316 µM) was 92.8% and 78.2% and 78.8%. For the same compound, the viability, T/C (compound 0.1 µM) was 70.1% and 54% and 60.7%, the viability, T/C (compound 0.316 µM) was 84.9% and 63% and 78.3% and the viability, T/C (compound 1 µM) was 92.1% and 65.1% and 69%. For the same compound, the IC50 (curve of compound) was over 1000 nM.
For `O=C(c1ccc(F)c(F)c1Nc1ccc(I)cc1F)N1CC(O)([C@@H]2CCCCN2)C1` + CNC(C)C(=O)NC1CN(S(=O)(=O)c2cccc(S(=O)(=O)N3CCC4CCC(C(=O)NC(c5ccccc5)c5ccccc5)N4C(=O)C(NC(=O)C(C)NC)C3)c2)CCC2CCC(C(=O)NC(c3ccccc3)c3ccccc3)N2C1=O, the IC50 (curve of first compound, second compound 0.00316 µM) was 472 nM, the IC50 (curve of first compound, second compound 0.01 µM) was 781 nM and the IC50 (curve of first compound, second compound 0.0316 µM) was 858 nM. It also gave an IC50 (curve of first compound, second compound 0.1 µM) of 922 nM, an IC50 (curve of first compound, second compound 0.316 µM) of 868 nM and an IC50 (curve of first compound, second compound 1 µM) of 892 nM. It also gave a viability, T/C (second compound 0.00316 µM, first compound 0.00316 µM) of 71%, a viability, T/C (second compound 0.00316 µM, first compound 0.01 µM) of 46.5% and a viability, T/C (second compound 0.00316 µM, first compound 0.0316 µM) of 82.4%. The viability, T/C (second compound 0.00316 µM, first compound 0.1 µM) was 65.1%, the viability, T/C (second compound 0.00316 µM, first compound 0.316 µM) was 66.1% and the viability, T/C (second compound 0.00316 µM, first compound 1 µM) was 19.9%. The viability, T/C (second compound 0.01 µM, first compound 0.00316 µM) was 107%, the viability, T/C (second compound 0.01 µM, first compound 0.01 µM) was 103% and the viability, T/C (second compound 0.01 µM, first compound 0.0316 µM) was 131%. It also gave a viability, T/C (second compound 0.01 µM, first compound 0.1 µM) of 134%, a viability, T/C (second compound 0.01 µM, first compound 0.316 µM) of 108% and a viability, T/C (second compound 0.01 µM, first compound 1 µM) of 34.2%. The viability, T/C (second compound 0.0316 µM, first compound 0.00316 µM) was 108%, the viability, T/C (second compound 0.0316 µM, first compound 0.01 µM) was 88.7% and the viability, T/C (second compound 0.0316 µM, first compound 0.0316 µM) was 110%. It also gave a viability, T/C (second compound 0.0316 µM, first compound 0.1 µM) of 126%, a viability, T/C (second compound 0.0316 µM, first compound 0.316 µM) of 77.6% and a viability, T/C (second compound 0.0316 µM, first compound 1 µM) of 45.8%. It also gave a viability, T/C (second compound 0.1 µM, first compound 0.00316 µM) of 86.9%, a viability, T/C (second compound 0.1 µM, first compound 0.01 µM) of 89.1% and a viability, T/C (second compound 0.1 µM, first compound 0.0316 µM) of 81.6%. It also gave a viability, T/C (second compound 0.1 µM, first compound 0.1 µM) of 90.5%, a viability, T/C (second compound 0.1 µM, first compound 0.316 µM) of 97.2% and a viability, T/C (second compound 0.1 µM, first compound 1 µM) of 47%. It also gave a viability, T/C (second compound 0.316 µM, first compound 0.00316 µM) of 69.7%, a viability, T/C (second compound 0.316 µM, first compound 0.01 µM) of 67.3% and a viability, T/C (second compound 0.316 µM, first compound 0.0316 µM) of 65.5%. It also gave a viability, T/C (second compound 0.316 µM, first compound 0.1 µM) of 134%, a viability, T/C (second compound 0.316 µM, first compound 0.316 µM) of 87.7% and a viability, T/C (second compound 0.316 µM, first compound 1 µM) of 45%. It also gave a viability, T/C (second compound 1 µM, first compound 0.00316 µM) of 70.1%, a viability, T/C (second compound 1 µM, first compound 0.01 µM) of 80.1% and a viability, T/C (second compound 1 µM, first compound 0.0316 µM) of 105%. It also gave a viability, T/C (second compound 1 µM, first compound 0.1 µM) of 113%, a viability, T/C (second compound 1 µM, first compound 0.316 µM) of 96% and a viability, T/C (second compound 1 µM, first compound 1 µM) of 45.2%.
